{"source": "ChEMBL document CHEMBL1127654", "about": "“An epimer of 5'-noraristeromycin and its antiviral properties” (1994)", "key": {"[1]": {"system": "Respiratory syncytial virus", "assay": "Minimal inhibitory concentration (MIC) required to reduce RSV (long) in HeLa cells", "assay_type": "functional", "conditions": "human respiratory syncytial virus"}, "HeLa [2]": {"system": "HeLa", "assay": "Minimal inhibitory concentration (MIC) required to reduce VSV in HeLa cells", "assay_type": "functional", "conditions": "Homo sapiens"}, "MT4 [3]": {"system": "MT4", "assay": "Minimal inhibitory concentration (MIC) required to reduce HIV(human immunodeficiency virus)-1 in MT-4 cells", "assay_type": "functional"}, "Vero [4]": {"system": "Vero", "assay": "Minimal inhibitory concentration (MIC) required to reduce Sindbis in virus in Vero cells", "assay_type": "functional", "conditions": "Chlorocebus sabaeus"}, "MT4 [5]": {"system": "MT4", "assay": "Minimal inhibitory concentration (MIC) required to reduce HIV-2 in MT-4 cells", "assay_type": "functional", "conditions": "Homo sapiens"}, "HEL [6]": {"system": "HEL", "assay": "Minimal inhibitory concentration (MIC) required to reduce VZV (varicella zoster virus) (OKA) in HEL cells", "assay_type": "functional", "conditions": "Homo sapiens"}, "HEL [7]": {"system": "HEL", "assay": "Minimal inhibitory concentration (MIC) required to reduce CMV (cytomegalo virus) (AD-169) in HEL cells", "assay_type": "functional, Homo sapiens"}, "Vero [8]": {"system": "Vero", "assay": "Minimal inhibitory concentration (MIC) required to reduce Parainfluenza-3 virus in Vero cells", "assay_type": "functional", "conditions": "Chlorocebus sabaeus"}, "Vero [9]": {"system": "Vero", "assay": "Minimal inhibitory concentration (MIC) required to reduce Tacaribe virus in Vero cells", "assay_type": "functional", "conditions": "Chlorocebus sabaeus"}, "Vero [10]": {"system": "Vero", "assay": "Minimal inhibitory concentration (MIC) required to reduce forest virus in Vero cells", "assay_type": "functional", "conditions": "Chlorocebus sabaeus"}, "MDCK [11]": {"system": "MDCK", "assay": "Minimal inhibitory concentration (MIC) required to reduce Influenza A virus in MDCK cells", "assay_type": "functional", "conditions": "Canis lupus familiaris"}, "HeLa [12]": {"system": "HeLa", "assay": "Minimal inhibitory concentration (MIC) required to reduce Polio-1 in HeLa cells", "assay_type": "functional", "conditions": "Homo sapiens"}, "E6SM [13]": {"system": "E6SM", "assay": "Minimal inhibitory concentration (MIC) required to reduce HSV(herpes simplex virus)-1 (KOS) cytopathicity in E6SM cells", "assay_type": "functional", "conditions": "Homo sapiens"}, "E6SM [14]": {"system": "E6SM", "assay": "Minimal inhibitory concentration (MIC) required to reduce TK-HSV-1 (VMW 1837) cytopathicity in E6SM cells", "assay_type": "functional", "conditions": "Homo sapiens"}, "MDCK [15]": {"system": "MDCK", "assay": "Minimal inhibitory concentration (MIC) required to reduce Influenza B in MDCK cells", "assay_type": "functional", "conditions": "Canis lupus familiaris"}, "E6SM [16]": {"system": "E6SM", "assay": "cells", "conditions": "Homo sapiens"}, "E6SM [17]": {"system": "E6SM", "assay": "Minimal inhibitory concentration (MIC) required to reduce TK(Thymidine kinase)-HSV-1 (B2006) cytopathicity in E6SM cells", "assay_type": "functional", "conditions": "Homo sapiens"}, "HEL [18]": {"system": "HEL", "assay": "Minimal inhibitory concentration (MIC) required to reduce VZV (YS) in HEL cells", "assay_type": "functional", "conditions": "Homo sapiens"}, "HEL [19]": {"system": "HEL", "assay": "Minimal inhibitory concentration (MIC) required to reduce CMV (Davis) in HEL cells", "assay_type": "functional", "conditions": "Homo sapiens"}, "Vero [20]": {"system": "Vero", "assay": "Minimal inhibitory concentration (MIC) required to reduce Reovirus-1 in Vero cells", "assay_type": "functional", "conditions": "Chlorocebus sabaeus"}, "HeLa [21]": {"system": "HeLa", "assay": "Minimal inhibitory concentration (MIC) required to reduce coxsackie B4 in HeLa cells", "assay_type": "functional", "conditions": "Homo sapiens"}, "E6SM [22]": {"system": "E6SM", "assay": "cells", "conditions": "Homo sapiens", "remark": "listed apart in the source"}, "Vero [23]": {"system": "Vero", "assay": "Minimal inhibitory concentration (MIC) required to reduce Junin virus in Vero cells", "assay_type": "functional", "conditions": "Chlorocebus sabaeus"}, "E6SM [24]": {"system": "E6SM", "assay": "Minimal inhibitory concentration (MIC) required to reduce HSV(herpes simplex virus)-2 cytopathicity E6SM cells", "assay_type": "functional", "conditions": "Homo sapiens"}, "MDCK [25]": {"system": "MDCK", "assay": "Minimal inhibitory concentration (MIC) required to reduce Influenza B virus in MDCK cells", "assay_type": "functional", "conditions": "Canis lupus familiaris"}}, "data": [{"smiles": "Nc1ncnc2c1ncn2[C@@H]1C[C@@H](O)[C@@H](O)[C@H]1O", "values": [{"measurement": "MIC50", "setting": "[1]", "value": 100, "unit": "µg/mL"}, {"measurement": "MIC50", "setting": "HeLa [2]", "value": "> 0.2", "unit": "µg/mL"}, {"measurement": "MIC50", "setting": "MT4 [3]", "value": "> 0.8", "unit": "µg/mL"}, {"measurement": "MIC50", "setting": "Vero [4]", "value": "> 200", "unit": "µg/mL"}, {"measurement": "MIC50", "setting": "MT4 [5]", "value": "> 0.8", "unit": "µg/mL"}, {"measurement": "MIC50", "setting": "HEL [6]", "value": 6, "unit": "µg/mL"}, {"measurement": "MIC50", "setting": "HEL [7]; Homo sapiens, read-out: MIC50", "value": 5, "unit": "µg/mL"}, {"measurement": "MIC50", "setting": "Vero [8]", "value": 0.04, "unit": "µg/mL"}, {"measurement": "MIC50", "setting": "Vero [9]", "value": 27, "unit": "µg/mL"}, {"measurement": "MIC50", "setting": "Vero [10]", "value": "> 200", "unit": "µg/mL"}, {"measurement": "MIC50", "setting": "MDCK [11]", "value": "> 200", "unit": "µg/mL"}, {"measurement": "MIC50", "setting": "HeLa [12]", "value": "> 400", "unit": "µg/mL"}, {"measurement": "MIC50", "setting": "E6SM [13]", "value": "> 300", "unit": "µg/mL"}, {"measurement": "MIC50", "setting": "E6SM [14]", "value": 200, "unit": "µg/mL"}, {"measurement": "MIC50", "setting": "MDCK [15]", "value": "> 200", "unit": "µg/mL"}, {"measurement": "MIC50", "setting": "E6SM [16]", "value": 0.2, "unit": "µg/mL"}, {"measurement": "MIC50", "setting": "E6SM [17]", "value": 200, "unit": "µg/mL"}, {"measurement": "MIC50", "setting": "HEL [18]", "value": 1, "unit": "µg/mL"}, {"measurement": "MIC50", "setting": "HEL [19]", "value": 3, "unit": "µg/mL"}, {"measurement": "MIC50", "setting": "Vero [20]", "value": 0.3, "unit": "µg/mL"}, {"measurement": "MIC50", "setting": "HeLa [21]", "value": "> 400", "unit": "µg/mL"}, {"measurement": "MIC50", "setting": "E6SM [22]", "value": 0.1, "unit": "µg/mL"}, {"measurement": "MIC50", "setting": "Vero [23]", "value": 30, "unit": "µg/mL"}, {"measurement": "MIC50", "setting": "E6SM [24]", "value": 300, "unit": "µg/mL"}]}, {"smiles": "Nc1ncnc2c1ncn2[C@@H]1C=C(CO)[C@@H](O)[C@H]1O", "note": "[NEOPLANOCIN A]", "values": [{"measurement": "MIC50", "setting": "[1]", "value": "> 1", "unit": "µg/mL"}, {"measurement": "MIC50", "setting": "MDCK [25]", "value": "> 3", "unit": "µg/mL"}, {"measurement": "MIC50", "setting": "HeLa [2]", "value": 2, "unit": "µg/mL"}, {"measurement": "MIC50", "setting": "Vero [4]", "value": 2, "unit": "µg/mL"}, {"measurement": "MIC50", "setting": "HEL [6]", "value": 6, "unit": "µg/mL"}, {"measurement": "MIC50", "setting": "HEL [7]", "value": 0.4, "unit": "µg/mL"}, {"measurement": "MIC50", "setting": "HEL [7]; Homo sapiens, read-out: MIC50", "value": 0.6, "unit": "µg/mL"}, {"measurement": "MIC50", "setting": "Vero [8]", "value": 0.2, "unit": "µg/mL"}, {"measurement": "MIC50", "setting": "Vero [9]", "value": 1, "unit": "µg/mL"}, {"measurement": "MIC50", "setting": "Vero [10]", "value": 7, "unit": "µg/mL"}, {"measurement": "MIC50", "setting": "MDCK [11]", "value": 1, "unit": "µg/mL"}, {"measurement": "MIC50", "setting": "HeLa [12]", "value": "> 40", "unit": "µg/mL"}, {"measurement": "MIC50", "setting": "E6SM [13]", "value": 70, "unit": "µg/mL"}, {"measurement": "MIC50", "setting": "E6SM [14]", "value": 70, "unit": "µg/mL"}, {"measurement": "MIC50", "setting": "E6SM [16]", "value": 2, "unit": "µg/mL"}, {"measurement": "MIC50", "setting": "E6SM [17]", "value": 20, "unit": "µg/mL"}, {"measurement": "MIC50", "setting": "HEL [18]", "value": 1, "unit": "µg/mL"}, {"measurement": "MIC50", "setting": "Vero [20]", "value": 0.7, "unit": "µg/mL"}, {"measurement": "MIC50", "setting": "HeLa [21]", "value": "> 40", "unit": "µg/mL"}, {"measurement": "MIC50", "setting": "E6SM [22]", "value": 0.2, "unit": "µg/mL"}, {"measurement": "MIC50", "setting": "Vero [23]", "value": 1, "unit": "µg/mL"}, {"measurement": "MIC50", "setting": "E6SM [24]", "value": "> 100", "unit": "µg/mL"}]}, {"smiles": "Nc1nccc2c1ncn2[C@@H]1C[C@H](CO)[C@@H](O)[C@H]1O", "note": "[3-DEAZAARISTEROMYCIN A]", "values": [{"measurement": "MIC50", "setting": "[1]", "value": 100, "unit": "µg/mL"}, {"measurement": "MIC50", "setting": "MDCK [25]", "value": "> 30", "unit": "µg/mL"}, {"measurement": "MIC50", "setting": "HeLa [2]", "value": "> 7", "unit": "µg/mL"}, {"measurement": "MIC50", "setting": "Vero [4]", "value": 4, "unit": "µg/mL"}, {"measurement": "MIC50", "setting": "HEL [6]", "value": "> 40", "unit": "µg/mL"}, {"measurement": "MIC50", "setting": "HEL [7]", "value": 7, "unit": "µg/mL"}, {"measurement": "MIC50", "setting": "HEL [7]; Homo sapiens, read-out: MIC50", "value": "> 7", "unit": "µg/mL"}, {"measurement": "MIC50", "setting": "Vero [8]", "value": "> 1", "unit": "µg/mL"}, {"measurement": "MIC50", "setting": "Vero [9]", "value": 7, "unit": "µg/mL"}, {"measurement": "MIC50", "setting": "Vero [10]", "value": "> 400", "unit": "µg/mL"}, {"measurement": "MIC50", "setting": "MDCK [11]", "value": "> 100", "unit": "µg/mL"}, {"measurement": "MIC50", "setting": "HeLa [12]", "value": "> 400", "unit": "µg/mL"}, {"measurement": "MIC50", "setting": "E6SM [13]", "value": "> 400", "unit": "µg/mL"}, {"measurement": "MIC50", "setting": "E6SM [14]", "value": "> 400", "unit": "µg/mL"}, {"measurement": "MIC50", "setting": "E6SM [16]", "value": 1, "unit": "µg/mL"}, {"measurement": "MIC50", "setting": "E6SM [17]", "value": "> 400", "unit": "µg/mL"}, {"measurement": "MIC50", "setting": "HEL [18]", "value": "> 40", "unit": "µg/mL"}, {"measurement": "MIC50", "setting": "Vero [20]", "value": 2, "unit": "µg/mL"}, {"measurement": "MIC50", "setting": "HeLa [21]", "value": "> 400", "unit": "µg/mL"}, {"measurement": "MIC50", "setting": "E6SM [22]", "value": 1, "unit": "µg/mL"}, {"measurement": "MIC50", "setting": "Vero [23]", "value": 7, "unit": "µg/mL"}, {"measurement": "MIC50", "setting": "E6SM [24]", "value": "> 400", "unit": "µg/mL"}]}]}
